pIC50: −log10 of the molar value.
How the values were obtained:
[1] = Metabolic stability in rat liver microsomes assessed as intrinsic clearance; format: ADME, Microsome
Histone deacetylase 3 = Histone deacetylase 3 (Homo sapiens, UniProt O15379)
Histone deacetylase 7 = target: T1, Histone deacetylase 7 (Homo sapiens, UniProt Q8WUI4); assay: Inhibition of HDAC7
T1 sequence (Q8WUI4 whole entry): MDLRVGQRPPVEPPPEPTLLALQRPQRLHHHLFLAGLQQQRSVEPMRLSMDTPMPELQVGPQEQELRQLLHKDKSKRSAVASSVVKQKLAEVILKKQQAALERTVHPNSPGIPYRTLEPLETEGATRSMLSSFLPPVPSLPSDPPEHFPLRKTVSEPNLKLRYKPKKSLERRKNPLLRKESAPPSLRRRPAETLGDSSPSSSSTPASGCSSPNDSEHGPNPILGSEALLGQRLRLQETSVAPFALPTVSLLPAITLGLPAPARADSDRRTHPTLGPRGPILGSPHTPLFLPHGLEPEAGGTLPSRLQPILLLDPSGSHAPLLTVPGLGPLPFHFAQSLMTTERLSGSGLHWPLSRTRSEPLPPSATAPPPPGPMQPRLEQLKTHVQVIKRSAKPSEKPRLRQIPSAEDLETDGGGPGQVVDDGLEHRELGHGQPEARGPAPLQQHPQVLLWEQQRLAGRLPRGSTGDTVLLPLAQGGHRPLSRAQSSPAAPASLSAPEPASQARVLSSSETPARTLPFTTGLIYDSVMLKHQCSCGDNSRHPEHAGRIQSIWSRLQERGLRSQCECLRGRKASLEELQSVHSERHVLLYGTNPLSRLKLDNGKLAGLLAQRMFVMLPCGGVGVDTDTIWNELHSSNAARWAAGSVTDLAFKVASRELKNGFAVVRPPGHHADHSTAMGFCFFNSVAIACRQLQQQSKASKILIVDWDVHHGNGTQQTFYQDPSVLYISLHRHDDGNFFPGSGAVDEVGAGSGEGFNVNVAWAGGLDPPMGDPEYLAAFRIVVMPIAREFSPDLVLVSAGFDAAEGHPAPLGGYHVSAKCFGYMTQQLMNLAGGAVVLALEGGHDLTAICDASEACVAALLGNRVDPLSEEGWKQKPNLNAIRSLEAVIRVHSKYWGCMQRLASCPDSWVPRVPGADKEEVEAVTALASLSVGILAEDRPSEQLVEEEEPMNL

Liver microsomes = assay: Metabolic stability in human liver microsomes assessed as intrinsic clearance; format: ADME, Microsome
[2] = target: T2, Protein deacetylase HDAC6 (Homo sapiens, UniProt Q9UBN7)
T2 sequence (Q9UBN7 whole entry): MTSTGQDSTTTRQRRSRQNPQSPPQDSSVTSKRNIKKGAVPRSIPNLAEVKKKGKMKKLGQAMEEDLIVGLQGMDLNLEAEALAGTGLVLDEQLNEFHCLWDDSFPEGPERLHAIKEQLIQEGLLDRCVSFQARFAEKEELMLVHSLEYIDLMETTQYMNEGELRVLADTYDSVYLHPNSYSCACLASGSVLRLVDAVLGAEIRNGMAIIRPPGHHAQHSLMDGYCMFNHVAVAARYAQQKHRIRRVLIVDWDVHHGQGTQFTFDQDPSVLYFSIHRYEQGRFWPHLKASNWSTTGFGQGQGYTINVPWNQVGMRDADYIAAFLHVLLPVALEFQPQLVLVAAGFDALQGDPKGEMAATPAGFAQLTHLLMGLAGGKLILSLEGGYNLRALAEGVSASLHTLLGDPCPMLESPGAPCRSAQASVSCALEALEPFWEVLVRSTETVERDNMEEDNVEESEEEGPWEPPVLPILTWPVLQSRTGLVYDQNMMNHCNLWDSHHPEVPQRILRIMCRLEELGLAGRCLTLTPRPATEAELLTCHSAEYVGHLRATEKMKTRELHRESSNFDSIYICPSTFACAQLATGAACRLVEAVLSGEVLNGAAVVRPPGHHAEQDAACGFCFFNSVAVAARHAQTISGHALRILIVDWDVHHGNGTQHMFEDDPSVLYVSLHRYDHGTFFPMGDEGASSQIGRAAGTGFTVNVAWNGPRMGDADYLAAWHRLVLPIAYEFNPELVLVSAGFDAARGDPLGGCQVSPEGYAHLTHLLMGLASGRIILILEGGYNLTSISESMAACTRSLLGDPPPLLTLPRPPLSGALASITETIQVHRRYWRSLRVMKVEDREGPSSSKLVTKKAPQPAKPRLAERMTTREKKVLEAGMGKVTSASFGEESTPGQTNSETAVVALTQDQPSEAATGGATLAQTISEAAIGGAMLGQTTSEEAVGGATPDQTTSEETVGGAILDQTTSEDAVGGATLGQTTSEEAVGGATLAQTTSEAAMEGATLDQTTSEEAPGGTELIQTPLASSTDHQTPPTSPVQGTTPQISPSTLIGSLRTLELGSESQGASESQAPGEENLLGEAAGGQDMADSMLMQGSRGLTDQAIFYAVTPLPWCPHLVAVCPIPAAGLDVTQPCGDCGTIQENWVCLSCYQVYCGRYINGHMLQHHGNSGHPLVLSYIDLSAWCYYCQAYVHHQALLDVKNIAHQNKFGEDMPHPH

[3] = Metabolic stability in dog liver microsomes assessed as intrinsic clearance; format: ADME, Canis lupus familiaris, Microsome
[4] = Half life in iv dosed rat; format: ADME, organism-based; details: in vivo
Histone deacetylase 5 = Histone deacetylase 5 (Homo sapiens, UniProt Q9UQL6); assay: Inhibition of HDAC5
Histone deacetylase 2 = Histone deacetylase 2 (Homo sapiens, UniProt Q92769)
[5] = Oral bioavailability in rat; format: ADME, organism-based; details: in vivo
[6] = Clearance in iv dosed rat; format: ADME, organism-based; details: in vivo
HeLa = assay: Antiproliferative activity against human HeLa cells after 72 hrs by celltiter-blue viability assay; format: functional, cell-based
Histone deacetylase 4 = Histone deacetylase 4 (Homo sapiens, UniProt P56524); assay: Inhibition of HDAC4
[7] = Protein binding in dog plasma; format: ADME, cell-free, Canis lupus familiaris; details: read-out: PPB (converted)
HCT-116 = assay: Antiproliferative activity against human HCT116 cells after 72 hrs by celltiter-blue viability assay; format: functional, cell-based; details: HCT-116, 72 h
Histone deacetylase 8 = target: T3, Histone deacetylase 8 (Homo sapiens, UniProt Q9BY41); assay: Inhibition of HDAC8
T3 sequence (Q9BY41 whole entry): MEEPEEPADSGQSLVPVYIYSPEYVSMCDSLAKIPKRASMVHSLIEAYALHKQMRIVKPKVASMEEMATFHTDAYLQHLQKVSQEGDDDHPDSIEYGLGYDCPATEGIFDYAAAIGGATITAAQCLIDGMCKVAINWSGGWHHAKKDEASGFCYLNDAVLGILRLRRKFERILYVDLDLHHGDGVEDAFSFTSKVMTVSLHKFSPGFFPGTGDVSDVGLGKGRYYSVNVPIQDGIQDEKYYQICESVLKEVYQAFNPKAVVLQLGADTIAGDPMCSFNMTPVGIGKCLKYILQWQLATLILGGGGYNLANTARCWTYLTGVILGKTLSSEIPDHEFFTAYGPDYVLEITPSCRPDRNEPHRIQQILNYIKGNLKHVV

[8] = Half life in iv dosed dog; format: ADME, organism-based, Canis lupus familiaris; details: in vivo
Histone deacetylase 1 = Histone deacetylase 1 (Homo sapiens, UniProt Q13547)
Description: Inhibition of human recombinant C-terminally flag tagged HDAC1

[9] = Volume of distribution at steady state in iv dosed rat; format: ADME, organism-based; details: in vivo, read-out: Vdss
[10] = Volume of distribution at steady state in iv dosed dog; format: ADME, organism-based, Canis lupus familiaris; details: in vivo, read-out: Vdss
[11] = Protein binding in rat plasma; format: ADME, cell-free; details: read-out: PPB (converted)
[12] = Clearance in iv dosed dog; format: ADME, organism-based, Canis lupus familiaris; details: in vivo
A549 = assay: Antiproliferative activity against human A549 cells after 72 hrs by celltiter-blue viability assay; format: functional, cell-based; details: A549, 72 h
[13] = Protein binding in human plasma; format: ADME, cell-free; details: read-out: PPB (converted)
[14] = Oral bioavailability dog; format: ADME, organism-based, Canis lupus familiaris; details: in vivo

Histone deacetylase 4, sequence (P56524 whole entry): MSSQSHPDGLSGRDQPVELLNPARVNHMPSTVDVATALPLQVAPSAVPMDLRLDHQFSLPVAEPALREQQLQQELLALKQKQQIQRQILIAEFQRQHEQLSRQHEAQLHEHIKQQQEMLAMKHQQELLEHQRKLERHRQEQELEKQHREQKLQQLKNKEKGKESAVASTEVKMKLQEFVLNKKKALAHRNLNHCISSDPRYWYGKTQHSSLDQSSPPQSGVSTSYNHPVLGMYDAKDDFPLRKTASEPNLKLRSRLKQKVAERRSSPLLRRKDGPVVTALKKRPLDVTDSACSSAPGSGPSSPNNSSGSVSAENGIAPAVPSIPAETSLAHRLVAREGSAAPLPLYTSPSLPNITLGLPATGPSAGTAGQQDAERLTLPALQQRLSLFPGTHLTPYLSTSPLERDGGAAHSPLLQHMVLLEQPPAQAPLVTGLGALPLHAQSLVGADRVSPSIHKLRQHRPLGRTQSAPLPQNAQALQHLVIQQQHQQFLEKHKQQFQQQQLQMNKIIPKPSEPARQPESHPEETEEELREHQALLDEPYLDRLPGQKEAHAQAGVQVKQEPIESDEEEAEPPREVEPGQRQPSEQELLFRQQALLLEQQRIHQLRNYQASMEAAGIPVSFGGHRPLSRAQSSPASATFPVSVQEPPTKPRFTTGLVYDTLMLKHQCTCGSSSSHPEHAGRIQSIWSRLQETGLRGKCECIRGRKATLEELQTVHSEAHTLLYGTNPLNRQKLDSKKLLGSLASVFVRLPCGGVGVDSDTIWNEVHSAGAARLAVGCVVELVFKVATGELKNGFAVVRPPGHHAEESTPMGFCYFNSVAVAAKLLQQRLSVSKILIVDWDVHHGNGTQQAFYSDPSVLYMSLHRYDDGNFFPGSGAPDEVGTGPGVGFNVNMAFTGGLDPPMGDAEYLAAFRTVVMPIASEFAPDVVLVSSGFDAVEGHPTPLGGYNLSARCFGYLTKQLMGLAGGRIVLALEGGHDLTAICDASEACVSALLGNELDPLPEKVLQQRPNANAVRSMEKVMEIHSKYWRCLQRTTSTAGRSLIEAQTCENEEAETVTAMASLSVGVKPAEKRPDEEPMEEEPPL
Histone deacetylase 2, sequence (Q92769 whole entry): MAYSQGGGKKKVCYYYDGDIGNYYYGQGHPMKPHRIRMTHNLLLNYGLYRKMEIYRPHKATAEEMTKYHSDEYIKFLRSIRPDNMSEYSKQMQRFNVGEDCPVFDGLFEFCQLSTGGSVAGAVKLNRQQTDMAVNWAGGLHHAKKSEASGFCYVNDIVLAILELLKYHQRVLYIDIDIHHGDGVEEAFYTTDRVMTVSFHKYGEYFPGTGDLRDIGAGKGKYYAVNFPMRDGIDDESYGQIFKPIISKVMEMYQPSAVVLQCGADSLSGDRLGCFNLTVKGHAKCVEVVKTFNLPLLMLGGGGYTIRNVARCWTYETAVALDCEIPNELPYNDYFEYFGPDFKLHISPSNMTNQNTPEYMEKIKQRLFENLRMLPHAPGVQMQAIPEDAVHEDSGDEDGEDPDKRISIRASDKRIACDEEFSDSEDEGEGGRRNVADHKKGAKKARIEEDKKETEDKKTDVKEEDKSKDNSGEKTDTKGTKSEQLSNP
Histone deacetylase 3, sequence (O15379 whole entry): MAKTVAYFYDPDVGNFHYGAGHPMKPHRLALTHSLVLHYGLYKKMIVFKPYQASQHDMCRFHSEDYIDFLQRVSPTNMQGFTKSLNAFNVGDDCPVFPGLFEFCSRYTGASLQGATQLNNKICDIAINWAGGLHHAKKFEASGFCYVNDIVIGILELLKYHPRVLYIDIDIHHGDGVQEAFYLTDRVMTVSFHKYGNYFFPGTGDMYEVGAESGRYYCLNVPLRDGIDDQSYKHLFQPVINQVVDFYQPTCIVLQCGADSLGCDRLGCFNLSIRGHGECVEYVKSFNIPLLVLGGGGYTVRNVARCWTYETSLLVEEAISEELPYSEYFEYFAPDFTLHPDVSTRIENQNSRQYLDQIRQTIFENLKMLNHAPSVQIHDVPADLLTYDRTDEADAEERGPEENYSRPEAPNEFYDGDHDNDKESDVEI
Histone deacetylase 1, sequence (Q13547 whole entry): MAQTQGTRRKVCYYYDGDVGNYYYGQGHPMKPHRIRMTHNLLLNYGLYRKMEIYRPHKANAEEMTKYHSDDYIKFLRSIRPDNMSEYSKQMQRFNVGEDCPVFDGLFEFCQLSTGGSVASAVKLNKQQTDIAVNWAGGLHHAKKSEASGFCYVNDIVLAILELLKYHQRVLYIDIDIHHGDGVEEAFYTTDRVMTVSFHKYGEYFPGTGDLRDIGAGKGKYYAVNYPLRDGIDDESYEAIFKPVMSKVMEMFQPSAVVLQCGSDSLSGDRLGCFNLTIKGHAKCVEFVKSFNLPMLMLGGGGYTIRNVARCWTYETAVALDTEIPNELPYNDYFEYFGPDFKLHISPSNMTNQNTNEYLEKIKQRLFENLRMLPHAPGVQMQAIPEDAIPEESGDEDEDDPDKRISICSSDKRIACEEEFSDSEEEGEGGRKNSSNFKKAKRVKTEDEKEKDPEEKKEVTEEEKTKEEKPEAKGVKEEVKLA
Histone deacetylase 5, sequence (Q9UQL6 whole entry): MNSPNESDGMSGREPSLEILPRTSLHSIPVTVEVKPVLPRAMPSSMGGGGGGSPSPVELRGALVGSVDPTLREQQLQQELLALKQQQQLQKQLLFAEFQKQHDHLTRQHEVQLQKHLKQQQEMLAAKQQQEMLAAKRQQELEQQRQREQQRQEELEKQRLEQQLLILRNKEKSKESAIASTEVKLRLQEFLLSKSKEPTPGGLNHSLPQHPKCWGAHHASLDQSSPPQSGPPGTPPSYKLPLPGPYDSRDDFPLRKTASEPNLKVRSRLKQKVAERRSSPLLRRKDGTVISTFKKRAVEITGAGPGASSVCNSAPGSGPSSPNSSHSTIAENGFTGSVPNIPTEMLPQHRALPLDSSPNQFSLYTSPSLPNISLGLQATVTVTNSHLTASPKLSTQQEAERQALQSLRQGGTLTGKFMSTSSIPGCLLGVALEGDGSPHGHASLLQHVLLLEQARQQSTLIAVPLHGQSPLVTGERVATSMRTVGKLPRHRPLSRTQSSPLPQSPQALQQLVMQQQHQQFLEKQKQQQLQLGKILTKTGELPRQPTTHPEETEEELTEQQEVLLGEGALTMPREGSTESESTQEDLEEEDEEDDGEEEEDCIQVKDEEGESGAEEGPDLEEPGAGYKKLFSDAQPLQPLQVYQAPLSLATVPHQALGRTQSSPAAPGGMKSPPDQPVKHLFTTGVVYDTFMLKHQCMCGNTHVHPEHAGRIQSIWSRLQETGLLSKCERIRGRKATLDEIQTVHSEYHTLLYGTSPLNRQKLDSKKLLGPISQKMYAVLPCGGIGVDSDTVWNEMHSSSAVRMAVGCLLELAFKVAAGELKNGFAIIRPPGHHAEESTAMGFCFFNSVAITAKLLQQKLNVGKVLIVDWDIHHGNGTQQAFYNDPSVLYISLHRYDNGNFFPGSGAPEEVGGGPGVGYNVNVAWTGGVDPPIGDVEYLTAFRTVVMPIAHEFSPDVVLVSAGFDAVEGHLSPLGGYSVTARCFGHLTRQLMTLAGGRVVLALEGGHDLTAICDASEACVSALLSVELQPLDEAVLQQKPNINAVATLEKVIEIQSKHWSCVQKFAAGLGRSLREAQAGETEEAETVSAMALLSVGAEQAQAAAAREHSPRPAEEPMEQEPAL

SMILES: CC(=O)CCCCC[C@H](NC(=O)C1CCN(C)CC1)c1ncc(-c2ccc3ccccc3c2)[nH]1
- microsomal CLint [1]: 194 µL/min/mg
- pIC50 (Histone deacetylase 3): 7.77
- pIC50 (Histone deacetylase 7): < 6.00
- CL (Liver microsomes): 12 µL/min/mg
- pIC50 [2]: 8.00
- CL [3]: 10 µL/min/mg
- half-life [4]: 2.4 h
- pIC50 (Histone deacetylase 5): < 6.00
- pIC50 (Histone deacetylase 2): 7.54
- bioavailability [5]: 0%
- clearance [6]: 133 mL/min/kg
- pIC50 (HeLa): 6.52
- pIC50 (Histone deacetylase 4): < 6.00
- fraction unbound [7]: 0.04
- pIC50 (HCT-116): 6.23
- pIC50 (Histone deacetylase 8): < 6.00
- half-life [8]: 11.8 h
- pIC50 (Histone deacetylase 1): 7.96
- Vd [9]: 6.9 L/kg
- Vd [10]: 5.2 L/kg
- fraction unbound [11]: 0.11
- clearance [12]: 7 mL/min/kg
- pIC50 (A549): 6.14
- fraction unbound [13]: 0.04
- bioavailability [14]: 28%

— ChEMBL document CHEMBL1152225, “Optimization of a series of potent and selective ketone histone deacetylase inhibitors” (Bioorg Med Chem Lett, 2008)
